The numbers were not newly measured in patent US6884793B2, “Combination preparation for contraception based on natural estrogens” (Jenapharm GmbH & Co. KG, priority 1995, dated 2005), which cites them from elsewhere.

This series concerns human liver Cytochrome P-450.

Consider `C#C[C@]1(O)CC[C@H]2[C@@H]3CCc4cc(O)ccc4[C@H]3CC[C@@]21C` [Ethinyl estradiol, ethinyl estradiol], for which the “effect on Cytochrome P-450 system” value is recorded as “suicidal blockage of the Cytochrome P-450 system”.
